{"source": "patent US20080227799A1", "about": "“CXCR4 Antagonists Including Heteroatoms for the Treatment of Medical Disorders” (priority 2006, published 2008)", "key": {"[1]": {"target": "T1, CXCR4 (Homo sapiens, UniProt P61073)", "T1 construct": "endogenous in cells; probably MDA-MB-231", "T1 sequence (P61073 whole entry)": "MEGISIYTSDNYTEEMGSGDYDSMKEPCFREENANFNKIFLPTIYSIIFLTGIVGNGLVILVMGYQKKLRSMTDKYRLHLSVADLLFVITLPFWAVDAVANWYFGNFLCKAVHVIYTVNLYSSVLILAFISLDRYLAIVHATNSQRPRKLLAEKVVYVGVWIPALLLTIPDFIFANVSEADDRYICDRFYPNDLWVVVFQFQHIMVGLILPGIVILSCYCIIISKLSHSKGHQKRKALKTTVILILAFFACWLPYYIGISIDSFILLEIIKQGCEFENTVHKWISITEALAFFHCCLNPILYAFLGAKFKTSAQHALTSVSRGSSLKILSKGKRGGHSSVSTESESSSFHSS", "assay": "Competition assay using biotin-labeled TN14003 and streptavidin-conjugated rhodamine on tumor cells", "type": "binding", "excerpt": "In a separate embodiment, a process for screening potential drug candidates is provided. The process includes providing a labeled peptide-based CXCR4 antagonist that has a detectable signal when bound to a CXCR4 receptor; contacting a CXCR4 receptor with at least one test molecule at a known concentration to form a test sample; contacting the test sample with the peptide-based antagonist; separately, contacting the peptide-based antagonist to a sample not including any test molecule to form a control sample; and comparing the signal from the test sample to the signal from the control sample. In a specific subembodiment, the peptide-based antagonist is derived from TN14003 (described in PCT Publication No. WO 04/087068 to Emory University). In a further subembodiment, the antagonist is labeled with a biotin molecule and the signal is elicited when the biotin-labeled antagonist is contacted with a streptavadin-conjugated signal molecule.\nThe peptide-based antagonist is typically a molecule with high affinity for the receptor. In one embodiment, the molecule is derived from the “T140” peptide antagonists. In a specific embodiment, the antagonist is TN14003 (described in PCT Publication No. WO 04/087068 to Emory University). The receptor is typically expressed in a cell line. The process can be performed as a dose-response curve. In this embodiment, the test compound is incubated with the receptor at varying concentrations and the signal elicited after binding of the labeled antagonist is measured and compared to control, as well as to each other.\nUsing biotin-labeled TN14003 along with streptavidin-conjugated rhodamine allowed a determination of the binding efficiency of these chemicals to the SDF-1 binding site of CXCR4 on tumor cells and compared it to AMD3100-SDF-1 interactions (FIG. 7). […] Cells were pre-incubated with different concentrations of AMD3100. […] Therefore, one of these compounds, WZZL811S, was selected to study its therapeutic potential based on potency and low toxicity to cells (FIG. 9)."}, "[2]": {"tested_on": "CXCR4/SDF-1-mediated Akt activation", "assay": "SDF-1-stimulated Akt phosphorylation in MDA-MB-231 cells (western blot)", "type": "cell-based", "conditions": "for concentration blocking Akt activation: 100 ng/ml SDF-1, 30 minutes, 0-1000 nM tested; for SDF-1-stimulated phosphorylation of Akt: MDA-MB-231 cells, 100 ng/ml SDF-1, 30 min, dose-dependent", "experimental": "(§1) CXCR4/SDF-1 interaction activates PI3K/Akt and Ras/Raf/MEK/Erk pathways in a Gαi protein (PTX-sensitive)-dependent manner. Experiments were conducted to determine the effect of blocking CXCR4/SDF-1 interaction by either TN14003 or AMD3100 at different concentrations (0, 0.01, 0.1, 1, 10, 100, 1000 nM) on phosphorylations of Akt and Erk1/2 signaling. Incubating cells with 100 ng/ml of SDF-1 for 30 minutes activated Akt. […] However, the increase in Erk1/2 phosphorylation by SDF-1 was not significant as the increase in Akt phosphorylation."}, "[3]": {"tested_on": "CXCR4/SDF-1-mediated Erk1/2 phosphorylation", "assay": "SDF-1-stimulated Erk1/2 phosphorylation", "type": "cell-based", "conditions": "data not shown", "experimental": "as §1"}, "[4]": {"tested_on": "CXCR4", "assay": "CXCR4 protein levels after treating cells", "type": "cell-based", "conditions": "treated cells"}, "[5]": {"conditions": "withdrawn from clinical trials; cited from earlier work"}, "[6]": {"tested_on": "SHIV", "assay": "SHIV infection of model cells, p27 antigen capture", "type": "cell-based", "conditions": "0.1, 1, 10 or 100 nM drug prior to infection", "experimental": "The effect of the test compounds on HIV infection in model cells was analyzed by p27 antigen capture using SHIV infected cells. Cells were incubated with 0, 0.1, 1, 10 or 100 nM drug prior to infection with SHIV. Viral titer was measured after infection by analyzing levels of p27 antigen. […] The inhibition was measurable at 2 days, and continued to 5 day incubations."}, "[7]": {"tested_on": "MDA-MB-231 cells", "assay": "Matrigel invasion assay, CXCR4/SDF-1-mediated invasion", "type": "cell-based", "conditions": "2 nM", "experimental": "Lowering CXCR4 mRNA levels by siRNAs inhibited CXCR4/SDF-1-mediated invasion as measured by a matrigel invasion assay. The CXCR4 ligand, SDF-1 (400 ng/ml) was added to the lower chamber to attract CXCR4-positive breast cancer cells to migrate through the matrigel. The invasion of MDA-MB-231 cells transfected with siRNA1 decreased to 39±4% of the control cells, 51±8% with siRNA2, and only 16±6% with both siRNA1+2 (FIG. 3A).\nWZZL811S was tested in a matrigel invasion assay to determine whether it can inhibit CXCR4/SDF-1-mediated invasion."}, "[8]": {"tested_on": "MDA-MB-231 cells", "assay": "Cell viability of MDA-MB-231 cells", "type": "cell-based", "conditions": "100 μM (the highest concentration tested)"}, "[9]": {"tested_on": "metastatic 686LN cells", "assay": "686LN head & neck cancer metastasis model, tail vein injection, FDG-PET", "type": "in vivo", "conditions": "20 mg/mouse/twice weekly; thirty days", "experimental": "The metastatic 686LN cells were injected intravenously through the tail vein to generate experimental animal models for Head & Neck cancer metastasis, modulated via CXCR4. […] These 3-D projection images show lung metastases well (bone mets and liver mets were apparent in axial section images of mice in control groups, data not shown)."}, "[10]": {"tested_on": "human umbilical vein endothelial cells (HUVECs)", "assay": "Endothelial capillary tube formation assay", "type": "cell-based", "conditions": "100 nM; SDF-1 100 ng/ml; 18 hours", "experimental": "The anti-angiogenic effect of test compounds was measured by analyzing endothelial cell growth and tube formation. The angiogenic effect of SDF-1 (100 ng/ml) on capillary formation by human umbilical vein endothelial cells (HUVECs) was examined in vitro using Matrigel-coated 24-well plates precoated with Matrigel and incubated for 18 hours. The angiogenic effect of SDF-1 was inhibited by either 100 nM TN14003 (peptide-based CXCR4 antagonist) or WZZL811S treatment (FIG. 14a, graph FIG. 14b)."}, "[11]": {"target": "T1, CXCR4", "assay": "Immunofluorescence of biotin-labeled TN14003 on MDA-MB-231 cells preincubated with SDF-1", "type": "binding", "conditions": "400 ng/ml SDF-1, 10 min", "experimental": "Initially, experiments were performed to verify that TN14003 binds to the predicted SDF-1 binding sites on the CXCR4 receptor. In these studies, MDA-MB-231 cells were incubated in the absence (FIG. 1A, B) or presence (FIG. 1A, C) of 400 ng/ml of SDF-1α for 10 min, and then fixed in ice-cold acetone. Immunofluorescence of the biotin-labeled TN14003 was negative in both membrane and cytosol in the cells pretreated with SDF-1α for 10 min (FIG. 1A, C)."}, "[12]": {"tested_on": "HIV", "conditions": "MT-4 cells; read-out: concentration required for 50% protection of HIV-induced cytopathogenicity; cited from earlier work"}, "[13]": {"tested_on": "MT-4 cells", "conditions": "cited from earlier work"}}, "note": "Entries after “also recorded” stand apart in the source; their conditions may differ."}
{"molecule": "C1=CC(CN2CCCNCCNCCCNCC2)CC=C1CN1CCCNCCNCCCNCC1", "note": "(stereo not shown) [AMD3100]", "values": [{"measurement": "concentration needed to compete against biotin-labeled TN14003", "setting": "[1]; cells pre-incubated with different concentrations", "result": 10, "unit": "µM"}, {"measurement": "concentration blocking Akt activation", "setting": "[2]", "result": "a few nano molar"}, {"measurement": "SDF-1-stimulated phosphorylation of Akt", "setting": "[2]", "result": "blocked"}, {"measurement": "concentration attenuating Erk1/2 phosphorylation", "setting": "[3]", "result": 100, "unit": "nM"}, {"measurement": "effect on CXCR4 protein levels", "setting": "[4]", "result": "did not affect"}, {"measurement": "side effect in clinical study", "setting": "[5]", "result": "cardiac-related side effect"}]}
{"molecule": "c1cnc(NCc2ccc(CNc3ncccn3)cc2)nc1", "note": "[WZ40]", "values": [{"measurement": "SHIV infection (p27 antigen levels)", "setting": "[6]", "result": "inhibited SHIV infection at all concentrations tested"}]}
{"molecule": "c1ccc(NCc2ccc(CNc3ccccn3)cc2)nc1", "note": "[WZZL811S]", "values": [{"measurement": "IC50", "setting": "[1]; cells pre-incubated with various concentrations, read-out: IC50, detection of CXCR4 by biotin-labeled TN14003 on pre-incubated cells", "result": "< 1000", "unit": "pM"}, {"measurement": "binding affinity to the ligand-binding site of CXCR4 on tumor cells", "setting": "[1]; competition with biotin-labeled TN14003", "result": "nano-molar concentration"}, {"measurement": "SDF-1-stimulated phosphorylation of Akt", "setting": "[2]", "result": "blocked"}, {"measurement": "CXCR4/SDF-1 mediated invasion of MDA-MB-231", "setting": "[7]", "result": "as potent as TN14003; also recorded: blocked"}, {"measurement": "cell viability of MDA-MB-231 cells", "setting": "[8]", "result": "did not decrease cell viability"}, {"measurement": "efficacy relative to TN14003", "setting": "[9]", "result": 80, "unit": "%"}, {"measurement": "angiogenic effect of SDF-1 on capillary tube formation", "setting": "[10]", "result": "inhibited"}, {"measurement": "SHIV infection (p27 antigen levels)", "setting": "[6]", "result": "inhibited SHIV infection at all concentrations tested"}]}
{"molecule": "TN14003", "values": [{"measurement": "concentration blocking Akt activation", "setting": "[2]", "result": "sub-nano molar concentration"}, {"measurement": "SDF-1-stimulated phosphorylation of Akt", "setting": "[2]", "result": "blocked"}, {"measurement": "concentration attenuating Erk1/2 phosphorylation (in words)", "setting": "[3]", "result": "sub-nano molar concentration"}, {"measurement": "CXCR4/SDF-1 mediated invasion of MDA-MB-231", "setting": "[7]", "result": "blocked"}, {"measurement": "metastasis of 686LN cells to organs (FDG-PET)", "setting": "[9]", "result": "failed to metastasize to any organs"}, {"measurement": "angiogenic effect of SDF-1 on capillary tube formation", "setting": "[10]", "result": "inhibited"}, {"measurement": "effect on CXCR4 protein levels", "setting": "[4]", "result": "did not affect"}, {"measurement": "binding of biotin-labeled TN14003 to CXCR4 after SDF-1 preincubation", "setting": "[11]", "result": "negative; also recorded: blocked"}, {"measurement": "EC50", "setting": "[12]", "result": 600, "unit": "pM"}, {"measurement": "concentration leading to 50% toxicity", "setting": "[13]", "result": 410, "unit": "µM"}]}
